In patent US9676757B2, “Heterocyclic compounds as NaV channel inhibitors and uses thereof” (Merck Patent GmbH, priority 2014, dated 2017):
Read-outs that look alike come from different tables or passages of the source.

Target: Nav1.6 (Homo sapiens, UniProt Q9UQD0)
Assay: Nav two-pulse protocol, IonWorks Quattro electrophysiology
Assay type: cell-based
Details: -120 mV to 0 mV, compound incubated 300 s
Outline: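 Two-pulse protocol on IonWorks Quattro with amphotericin B (200 μg/ml) perforated patch: holding −120 mV, 2.5 s step to 0 mV, 5 ms gap, 20 ms step to 0 mV. Compounds (0.3% DMSO final) incubated 300 s; block taken as Post/Pre peak inward current for each pulse.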

Nav1.6, sequence (Q9UQD0 whole entry): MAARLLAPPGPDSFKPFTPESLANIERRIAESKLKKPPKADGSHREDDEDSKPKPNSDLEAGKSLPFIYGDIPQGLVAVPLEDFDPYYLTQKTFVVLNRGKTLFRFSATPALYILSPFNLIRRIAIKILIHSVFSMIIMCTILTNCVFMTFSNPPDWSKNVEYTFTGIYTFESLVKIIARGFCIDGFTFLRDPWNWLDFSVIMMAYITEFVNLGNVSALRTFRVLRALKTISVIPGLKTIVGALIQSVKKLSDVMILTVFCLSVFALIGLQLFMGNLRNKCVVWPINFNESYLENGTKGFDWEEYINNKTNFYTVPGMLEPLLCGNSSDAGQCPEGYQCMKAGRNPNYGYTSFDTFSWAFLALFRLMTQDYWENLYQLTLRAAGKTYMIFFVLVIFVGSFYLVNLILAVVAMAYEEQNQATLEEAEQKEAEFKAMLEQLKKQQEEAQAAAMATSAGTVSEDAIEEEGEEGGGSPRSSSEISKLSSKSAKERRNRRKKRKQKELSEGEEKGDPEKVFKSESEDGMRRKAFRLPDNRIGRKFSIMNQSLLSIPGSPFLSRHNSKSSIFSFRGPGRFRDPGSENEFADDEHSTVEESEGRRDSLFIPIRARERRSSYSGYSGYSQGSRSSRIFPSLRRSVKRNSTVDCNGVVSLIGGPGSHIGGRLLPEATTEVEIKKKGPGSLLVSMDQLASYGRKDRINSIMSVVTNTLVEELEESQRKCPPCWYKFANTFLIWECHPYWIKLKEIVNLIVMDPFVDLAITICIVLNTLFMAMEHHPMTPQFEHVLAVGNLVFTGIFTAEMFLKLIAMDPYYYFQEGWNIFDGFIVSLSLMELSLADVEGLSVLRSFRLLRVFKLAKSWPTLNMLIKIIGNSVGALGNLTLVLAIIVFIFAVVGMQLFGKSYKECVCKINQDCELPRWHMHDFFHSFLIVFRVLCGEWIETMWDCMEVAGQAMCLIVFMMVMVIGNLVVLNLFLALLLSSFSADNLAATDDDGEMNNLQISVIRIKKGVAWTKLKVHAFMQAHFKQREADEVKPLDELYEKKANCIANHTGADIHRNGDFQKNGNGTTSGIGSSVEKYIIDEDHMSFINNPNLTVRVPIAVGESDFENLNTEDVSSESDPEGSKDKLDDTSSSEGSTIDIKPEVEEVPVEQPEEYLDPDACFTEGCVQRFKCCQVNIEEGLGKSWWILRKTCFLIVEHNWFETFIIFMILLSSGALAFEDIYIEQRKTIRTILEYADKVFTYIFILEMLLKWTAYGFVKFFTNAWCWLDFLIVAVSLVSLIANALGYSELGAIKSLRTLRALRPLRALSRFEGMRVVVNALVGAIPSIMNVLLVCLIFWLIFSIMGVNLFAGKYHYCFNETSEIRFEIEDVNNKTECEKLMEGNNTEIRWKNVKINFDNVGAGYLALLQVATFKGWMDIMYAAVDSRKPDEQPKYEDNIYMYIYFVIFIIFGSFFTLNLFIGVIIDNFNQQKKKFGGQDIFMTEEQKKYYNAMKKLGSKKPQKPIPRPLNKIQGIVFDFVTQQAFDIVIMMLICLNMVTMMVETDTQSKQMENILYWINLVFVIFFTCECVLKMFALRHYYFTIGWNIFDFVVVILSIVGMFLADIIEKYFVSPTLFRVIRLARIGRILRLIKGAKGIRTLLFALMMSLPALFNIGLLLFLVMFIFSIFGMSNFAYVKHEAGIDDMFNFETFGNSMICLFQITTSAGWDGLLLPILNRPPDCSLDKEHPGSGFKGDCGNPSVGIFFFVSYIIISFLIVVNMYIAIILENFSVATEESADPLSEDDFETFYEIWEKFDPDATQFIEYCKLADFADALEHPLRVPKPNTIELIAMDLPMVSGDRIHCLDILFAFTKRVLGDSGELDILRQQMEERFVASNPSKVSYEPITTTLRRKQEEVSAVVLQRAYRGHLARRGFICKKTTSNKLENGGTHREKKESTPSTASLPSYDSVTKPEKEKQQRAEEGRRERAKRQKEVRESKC

SMILES	IC50 (read-out: Nav1.6 Tonic)	IC50 (read-out: Nav1.6 inac)
Cc1ccc(CNC(=O)C2CCN(Cc3cccc(OCC(F)(F)F)c3)C2)nc1 (stereo not shown) [Compound 97, 1-[3-(2,2,2-Trifluoro-ethoxy)-benzyl]-pyrrolidine-3-carboxylic acid (5-methyl-pyridin-2-ylmethyl)-amide]	> 20 µM	> 5 µM
O=C(NCc1ncccc1F)C1CCN(Cc2cccc(OCC(F)(F)F)c2)C1 (stereo not shown) [Compound 98, 1-[3-(2,2,2-Trifluoro-ethoxy)-benzyl]-pyrrolidine-3-carboxylic acid (3-fluoro-pyridin-2-ylmethyl)-amide]	> 20 µM	> 5 µM
CC1(C(=O)NCc2ccccn2)CCN(Cc2coc(-c3ccccc3)n2)C1 (stereo not shown) [Compound 99, 3-Methyl-1-(2-phenyl-oxazol-4-ylmethyl)-pyrrolidine-3-carboxylic acid (pyridin-2-ylmethyl)-amide]	> 20 µM	1 to 5 µM
Cn1ccnc1CNC(=O)C1(C)CCN(Cc2cccc(Oc3ccccc3)c2)C1 (stereo not shown) [Compound 101, 3-Methyl-1-(3-phenoxy-benzyl)-pyrrolidine-3-carboxylic acid (1-methyl-1H-imidazol-2-ylmethyl)-amide]	> 20 µM	1 to 5 µM
CC1(C(=O)NCc2ccccn2)CCN(Cc2cnc(-c3ccccc3)s2)C1 (stereo not shown) [Compound 102, 3-Methyl-1-(2-phenyl-thiazol-5-ylmethyl)-pyrrolidine-3-carboxylic acid (pyridin-2-ylmethyl)-amide]	> 20 µM	1 to 5 µM
CCC(NC(=O)C1(C)CCN(Cc2cccc(Oc3ccccc3)c2)C1)c1cccnc1 (stereo not shown) [Compound 103, 3-Methyl-1-(3-phenoxy-benzyl)-pyrrolidine-3-carboxylic acid (1-pyridin-3-yl-propyl)-amide]	> 20 µM	> 5 µM

Further lines, results first:

IC50 (read-out: Nav1.6 Tonic)	IC50 (read-out: Nav1.6 inac)	SMILES
> 20 µM	1 to 5 µM	Cc1cccnc1CNC(=O)C1CCN(Cc2cccc(OCC(F)(F)F)c2)C1 (stereo not shown) [Compound 90, 1-[3-(2,2,2-Trifluoro-ethoxy)-benzyl]-pyrrolidine-3-carboxylic acid (3-methyl-pyridin-2-ylmethyl)-amide]
> 20 µM	> 5 µM	Cc1ccc(CNC(=O)C2CCN(Cc3cccc(Oc4ccccc4)c3)C2)o1 (stereo not shown) [Compound 91, 1-(3-Phenoxy-benzyl)-pyrrolidine-3-carboxylic acid (5-methyl-furan-2-ylmethyl)-amide]
> 20 µM	1 to 5 µM	O=C(NCc1cccc(C(F)(F)F)n1)C1CCN(Cc2cccc(OCC(F)(F)F)c2)C1 (stereo not shown) [Compound 92, 1-[3-(2,2,2-Trifluoro-ethoxy)-benzyl]-pyrrolidine-3-carboxylic acid (6-trifluoromethyl-pyridin-2-ylmethyl)-amide]
> 20 µM	1 to 5 µM	O=C(NCc1ccccn1)C1(O)CCN(Cc2cccc(Oc3ccccc3)c2)C1 (stereo not shown) [Compound 93, 3-hydroxy-1-(phenyloxy-benzyl)-pyrrolidine-3-carboxylic acid (pyridin-2-ylmethyl)-amide]
> 20 µM	1 to 5 µM	O=C(NCc1ccccn1)C1(O)CCN(Cc2cccc(Oc3ccccc3)c2)C1=O (stereo not shown) [Compound 94, 3-Hydroxy-2-oxo-1-(3-phenoxy-benzyl)-pyrrolidine-3-carboxylic acid (pyridin-2-ylmethyl)-amide]
> 20 µM	> 5 µM	O=C(NCc1ccccn1)C1(Cl)CCN(Cc2cccc(Oc3ccccc3)c2)C1=O (stereo not shown) [Compound 95, 3-Chloro-2-oxo-1-(3-phenoxy-benzyl)-pyrrolidine-3-carboxylic acid (pyridin-2-ylmethyl)-amide]
> 20 µM	> 5 µM	O=C(NCc1ccc(OC(F)F)cc1)C1CCN(Cc2cccc(Oc3ccccc3)c2)C1 (stereo not shown) [Compound 96, 1-(3-Phenoxy-benzyl)-pyrrolidine-3-carboxylic acid 4-difluoromethoxy-benzylamide]
10 to 20 µM	1 to 5 µM	CCNC(=O)C1CN(Cc2cccc(Oc3ccccc3)c2)CCO1 (stereo not shown) [Compound 100, 4-(3-Phenoxy-benzyl)-morpholine-2-carboxylic acid ethylamide]
